These results are taken from patent US20040018984A1, “Methods for preventing adhesion formation using protease inhibitors” (priority 2002, published 2004).

Bounds are passed on as bounds.

Series [1] relates to Syrian hamsters. Description: Scoring of adhesion formation after uterine denudation surgery in hamsters. Format: in vivo, hamster. The settings on record: for preventative effect, reducing adhesion formation: subsequent experiments in the hamster model with enantiomerically enriched preparations. On the procedure:
(§1) Mature female Syrian hamsters (SLC, Shizuoka, Japan), 6 weeks of age, weighing 85 to 90 g were maintained in an environmentally controlled room with a 12-hour light, 12-hour dark cycle. Hamsters were anesthetized with intraperitoneal sodium pentobarbital (50 mg/kg). Surgical technique was performed using a modified procedure of Nagler et al. (Am. J. Obstet. Gynecol. 180:558-63, 1999). An abdominal midline incision was made, and the right uterus was grasped and denuded of serosa over half the length of the uterine body until punctate hemorrhage occurred, using a swab. In the […], 1 ml of 10 μM Suc-Val-Pro-Phe^P(OPh)2 in saline was injected into the abdomen. Then, the abdomen was closed in two layers with silk sutures. In the placebo group, the same 1 ml amount of saline was administered as in the chymase inhibitor group.
Three days after the surgery, the animals (placebo group, n=13; chymase group, n=13) were anesthetized with sodium pentobarbital (50 mgikg, i.p.), and then the uterus was removed for the measurement of chymase activity. Two weeks after the surgery, the animals (placebo group, n=15; chymase group, n=16) were anesthetized with sodium pentobarbital (50 mg/kg, i.p.), and then adhesions were assessed.
The adhesions were graded blindly according to a modified classification of Hulka et al. (Fertil Steril. 30:661-665, 1978): Score 0, no adhesions; Score 1, mild adhesions; Score 2, localized moderate adhesions; Score 3, moderate and wide adhesions; Score 4, severe adhesions, and impossible to separate. Chymase activities were evaluated in a parametric test using Fisher's Protected Least Significant Difference. Adhesion scores were evaluated in a nonparametric test, and statistically analyzed by the Mann-Whitney's U test. Values are given as means ±standard error (S.E.). Differences were considered statistically significant at P<0.05.

For series [2], the target named is human leukocyte elastase (Homo sapiens, UniProt P08246). The settings on record: cited from earlier work.
Series [3] relates to chymotrypsin and chymotrypsin-like enzymes. The settings on record: cited from earlier work.
For series [4] the following is noted: cited from earlier work.
For series [5], the target named is T1, chymase (Homo sapiens, UniProt P23946).
T1 construct: from tissue
T1 sequence (P23946 22-247): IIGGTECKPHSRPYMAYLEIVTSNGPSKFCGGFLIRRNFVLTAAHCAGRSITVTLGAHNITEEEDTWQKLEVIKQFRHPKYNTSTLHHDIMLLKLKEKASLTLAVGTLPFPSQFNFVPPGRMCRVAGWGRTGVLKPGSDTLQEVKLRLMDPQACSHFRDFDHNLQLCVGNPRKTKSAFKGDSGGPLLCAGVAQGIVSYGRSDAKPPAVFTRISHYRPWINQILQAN
The series can be described thus: Chymase activity in vascular tissues after administration during the operation. The settings on record: for 4 weeks, 10 μM administration only during the operation. The format is in vivo. An excerpt: Pursuant to the method of the present invention, at least one protease inhibitor is maintained in an effective concentration at the site of potential adhesion formation for a period of time sufficient to permit substantial re-epithelialization. The protease inhibitor compound is typically administered over the perioperative interval, which for purposes of the present invention may include a period of time prior to surgery, through surgery itself, and also post-completion of surgery. The term of administration of administration may vary, but typically should be effected from the time of surgery for at least 24 to 48 hours after completion of surgical procedures. In general, the protease inhibitory compound may be administered, with or without sustained release vehicles or formulations, from the time of surgery for a period ranging between about 24 hours and about 14 days (a period that generally will include complete healing). Preferably the compound may be administered as above from the time of surgery for a period ranging between about 24 hours and 7 days, and more preferably ranging between about 24 hours and 3 days. […] Effective dosages, regimens, and routes of administration for other protease inhibitors may be readily determined by one of skill in the art using the teachings provided herein.

In series [6] the test system is chymase. The series can be described thus: Uterus chymase activity after uterine denudation surgery in hamsters. The format is in vivo, hamster. The settings on record: three days after the operation; 1 ml of 10 μM in saline injected into the abdomen; mean ± S.E.; P=0.06 vs placebo (0.88±0.09). As to the method:
as §1, with “In the placebo group, the same 1 ml amount of saline was administered as in the chymase inhibitor group.” left out
Three days after the surgery, the animals (placebo group, n=13; chymase group, n=13) were anesthetized with sodium pentobarbital (50 mgikg, i.p.), and then the uterus was removed for the measurement of chymase activity. Two weeks after the surgery, the animals (placebo group, n=15; chymase group, n=16) were anesthetized with sodium pentobarbital (50 mg/kg, i.p.), and then adhesions were assessed. […]
Chymase activity was measured as described previously (Jin et al., J. Hypertens. 16:657-664, 1998). […] Protein concentration was measured with the bicinchoninic acid protein assay reagent (Pierce Chemical, Rockford, Ill.) using bovine serum albumin as a standard. […]

Series [7] has as its target bovine thrombin (Bos taurus, UniProt P00735). The settings on record: cited from earlier work.

Sequence of human leukocyte elastase (P08246 30-267): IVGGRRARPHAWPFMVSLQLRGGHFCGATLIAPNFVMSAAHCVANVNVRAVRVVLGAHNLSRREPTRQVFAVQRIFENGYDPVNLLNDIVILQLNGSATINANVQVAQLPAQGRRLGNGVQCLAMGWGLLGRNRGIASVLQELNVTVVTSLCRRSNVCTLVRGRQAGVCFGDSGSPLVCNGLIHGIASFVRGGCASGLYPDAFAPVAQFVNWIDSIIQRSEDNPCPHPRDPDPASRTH

`CC(C)[C@H](NC(=O)CCC(=O)O)C(=O)N1CCC[C@H]1C(=O)NC(Cc1ccccc1)P(=O)(Oc1ccccc1)Oc1ccccc1` (stereo partly drawn) [Suc-Val-Pro-Phe^P(OPh)2-I]: the “preventative effect, reducing adhesion formation” value in series [1] is given as “not”.

Regarding Boc-Val-Pro-Val^P(OPh)2, the “inhibitor potency for human leukocyte elastase” value in series [2] is on record as “relatively potent inhibitors”. Regarding `CC(C)[C@H](NC(=O)CCC(=O)O)C(=O)N1CCC[C@H]1C(=O)NC(Cc1ccccc1)P(=O)(Oc1ccccc1)Oc1ccccc1` (stereo partly drawn) [Suc-Val-Pro-Phe^P(OPh)2], the “scores of adhesion formation” value in series [1] (two weeks after surgery, 1 ml of 10 μM in saline into the abdomen, score 0-4, mean ± S.E., placebo 2.07±0.34, difference significant) stood at 0.88±0.20. Besides, in series [1] (two weeks after surgery, score 0-4, placebo scores between 0 and 4), the “highest score of adhesion formation found” value is at most 3. Further, in series [3], the “inhibitor potency for chymotrypsin and chymotrypsin-like enzymes” value was “relatively potent inhibitor”. Further, in series [4], the “half-life in human plasma” value is listed as “approximately 20 hr”. The “chymase activity in vascular tissues” value in series [5] is “significantly suppressed”. The uterus chymase activity in series [6] is recorded as 0.66±0.06 mU/mg protein. `CC(C)[C@H](NC(=O)CCC(=O)O)C(=O)N1CCC[C@H]1C(=O)NC(Cc1ccccc1)P(=O)(Oc1ccccc1)Oc1ccccc1` (stereo partly drawn) [Suc-Val-Pro-Phe^P(OPh)2-A]: the “preventative effect, reducing adhesion formation” value in series [1] was “significant preventative effect”. As for `CC(C)(C)OC(=O)N[C@H](Cc1ccccc1)C(=O)N1CCC[C@H]1C(=O)NC(c1ccc(C(=N)N)cc1)P(=O)(Oc1ccccc1)Oc1ccccc1.Cl` (stereo partly drawn) [diphenyl Boc-D-Phe-Pro-amino(4-amidinophenyl)methanephosphonate hydrochloride], the “inhibitor potency for bovine thrombin” value in series [7] is on record as “potent phosphonate inhibitor”. On to MeO-Suc-Ala-Ala-Pro-Val^P(OPh)2, for which, in series [2], the “inhibitor potency for human leukocyte elastase” value is on record as “relatively potent inhibitors”.
